Results from US20250275953A1, “VODOBATINIB FOR REDUCING PROGRESSION OF PARKINSON'S DISEASE” (Sun Pharma Advanced Research Company Ltd., priority 2022, published 2025).
Like-named read-outs stand apart in the source and are kept apart here.

Key:
Abl (T315I) = Abl (T315I) (Homo sapiens, UniProt P00519, T315I); assay: Biochemical kinase assay, gatekeeper mutant Abl
Excerpt: (§1) Conventional biochemical kinase assays, using radioactivity and fluorescence as readouts, were used to derive half maximal-inhibitory concentrations (IC50) values.

[1] = CSF pharmacokinetics on Day 7, healthy volunteers; type: in vivo, human; settings: for CSF AUC0-24 AM / CSF AUC0-24 GM / CSF AUC0-24 Median / CSF Cmax AM / CSF Cmax GM / CSF Cmax Median / Tmax: Day 7, CSF, healthy volunteers; for Cmax, CSF/IC50: IC50 0.9 nM; for Tmax: male, human, CSF, oral
Description: CSF Assessment: On the morning of Day 7, local anesthetic (e.g., lidocaine 2% with epinephrine) was administered subcutaneously at the site of lumbar puncture. An indwelling intrathecal catheter was inserted at the lumbar region (L3-L5) by a trained and experienced anesthesiologist (i.e., using an epidural tray, 17G or 20/22G Tuohy needle and catheter over needle system). A CSF sample was collected for safety labs (i.e., cell count, glucose, protein). Serial CSF samples were then collected through the spinal catheter and tubing connected to a fractional collection system (i.e., peristaltic pump). The CSF samples (8 mL) were collected at a flow rate of 0.5 mL/min over a 16-minute period at pre-dose, and at 0.5 h, 1.0 h, 1.5 h, 2 h, 2.5 h, 3 h, 4 h, 6 h, 8 h, 12 h and 24 h post-dose. The first 2 mL of CSF was discarded, and the 6 mL remainder was used for the PK study.
The plasma and CSF samples were analyzed, by validated LC/MS-MS methods. PK analysis was conducted based on PK/PP Population: Cmax, AUC0-t, AUC0-24, AUC0-∞, Tmax, Cavg, CL/F, Cmin, t1/2, Kel, Vd (V/F; Vd/F), and Vss/F. Model-independent plasma PK parameters (Cmax, Tmax, t1/2, AUC0-t, AUC0-24, AUC0-∞, Cavg, CL/F, Vss/F, Vd/F), after the first dose (Day 1) and last dose (Day 7), Cmin on Days 2-7) was listed by subject and summarized by study cohort. In addition to the descriptive statistics listed above, geometric means was reported for the pivotal PK endpoints (CL/F, Vss/F, Vd/F, Cmin, Cavg, AUC0-t, AUC0-24, AUC0-∞, and Cmax). For CSF, PK parameters (Cmax, Tmax, t1/2, AUC0-t, AUC0-24, Cmin, Cavg, CL/F, Vss/F) was listed by subject and summarized by cohort. Ratios of CSF: plasma concentration at each time point was listed by subject and summarized by study cohort.
Forty-one healthy adult male volunteers aged 18 to 45 with body mass indexes (BMI)≥18 to ≤30 Kg/m^2 and total body weight >50 kg (110 lb) were screened in order to enroll 19 subjects with an average age of 34.2 years (range 21.5-45.6 years) into this study Six participants were randomly assigned to the 48 and 192 mg cohorts, and seven participants were assigned to the 384 mg cohort. After an overnight fast, participants received once daily doses of vodobatinib as capsules for 7 days. Serial PK blood samples to measure vodobatinib plasma concentrations were collected at pre-dose and at 0.25, 0.5, 1, 1.5, 2, 2.5, 3, 4, 6, 8, 12, 16 and 24 h post-dose after the first dose on Day 1 and the last dose on day 7. Additional PK samples prior to the morning doses were taken on Days 3-6. On the morning of Day 7, prior to dosing, an indwelling intrathecal catheter was inserted in the lumbar region (L3-L5). Serial CSF samples were collected through the catheter connected via peristaltic pump to a fraction collector. At each designated CSF collection time point, 8 mL of CSF was collected at a flow rate of 0.5 mL/min over a 16-min period at pre-dose, and 0.5, 1.0, 1.5, 2, 2.5, 3, 4, 6, 8, 12 and 24 h post-dose. The first 2 mL of CSF was discarded, and the remaining 6 mL was used for the vodobatinib assay. The occurrence of treatment-emergent adverse events (TEAEs) and serious AEs (SAEs) reported through the completion of study were collected. Clinical laboratory parameters, vital signs and physical examination data and electrocardiogram (ECG) were collected and evaluated relative to baseline values.

Arg = Arg (Homo sapiens, UniProt P42684); assay: Biochemical kinase assay
Chain of Arg (P42684 whole entry): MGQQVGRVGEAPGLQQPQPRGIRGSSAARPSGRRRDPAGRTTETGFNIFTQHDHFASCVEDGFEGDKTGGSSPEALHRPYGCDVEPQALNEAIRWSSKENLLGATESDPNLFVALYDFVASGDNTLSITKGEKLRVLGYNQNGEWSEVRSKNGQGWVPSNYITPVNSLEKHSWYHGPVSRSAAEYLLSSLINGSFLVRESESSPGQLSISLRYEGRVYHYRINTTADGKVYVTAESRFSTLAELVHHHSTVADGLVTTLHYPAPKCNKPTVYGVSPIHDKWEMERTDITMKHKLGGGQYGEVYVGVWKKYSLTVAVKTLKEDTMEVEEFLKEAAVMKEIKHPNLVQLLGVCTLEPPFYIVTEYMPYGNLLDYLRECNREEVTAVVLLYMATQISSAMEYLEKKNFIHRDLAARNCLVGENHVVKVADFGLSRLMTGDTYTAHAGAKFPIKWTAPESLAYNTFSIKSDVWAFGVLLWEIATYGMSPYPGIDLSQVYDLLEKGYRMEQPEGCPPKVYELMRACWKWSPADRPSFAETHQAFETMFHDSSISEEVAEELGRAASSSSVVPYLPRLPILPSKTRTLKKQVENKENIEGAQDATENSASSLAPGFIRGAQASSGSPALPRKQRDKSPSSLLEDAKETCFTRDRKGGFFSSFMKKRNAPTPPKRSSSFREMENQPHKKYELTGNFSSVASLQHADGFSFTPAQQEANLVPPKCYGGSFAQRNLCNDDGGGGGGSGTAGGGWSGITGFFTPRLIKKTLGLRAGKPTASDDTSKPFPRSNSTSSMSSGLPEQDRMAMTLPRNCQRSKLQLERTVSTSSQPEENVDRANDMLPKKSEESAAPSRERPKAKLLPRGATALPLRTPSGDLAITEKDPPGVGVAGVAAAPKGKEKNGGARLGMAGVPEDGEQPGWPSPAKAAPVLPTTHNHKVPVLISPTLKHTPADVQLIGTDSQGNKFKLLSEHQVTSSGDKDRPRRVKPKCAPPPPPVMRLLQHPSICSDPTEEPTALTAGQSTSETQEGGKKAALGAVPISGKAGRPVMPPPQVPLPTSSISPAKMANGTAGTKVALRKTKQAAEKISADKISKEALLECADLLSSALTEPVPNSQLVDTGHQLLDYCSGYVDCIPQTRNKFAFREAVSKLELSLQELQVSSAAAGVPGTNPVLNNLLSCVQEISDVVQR
Excerpt: as §1

c-Abl = c-Abl (Homo sapiens, UniProt P00519); assay: Competition binding KINOMEscan assay (DiscoverX); settings: read-out: Kd, Binding Assay hAbl
Description: The binding affinity of vodobatinib to c-Abl was determined in a competition binding KINOMETM scan assay. […] Liganded beads were blocked with excess biotin, and washed with blocking buffer (SEA BLOCK Pierce), with 1% BSA, 0.05% Tween 20, 1 mM DTT) to remove unbound ligand and reduce non-specific binding. […] The kinase concentration in the eluates was measured by qPCR. The kinase concentrations in test compound treated wells were compared with that in the non-treated wells across the concentration range to generate the Kd values.

[2] = 48 mg, Day 7, Healthy Volunteers
[3] = 192 mg, Day 7, Healthy Volunteers
[4] = 384 mg, Day 7, Healthy Volunteers

Structure (SMILES): Cc1ccc(C(=O)NNC(=O)c2c(C)cccc2Cl)cc1C#Cc1cnc2ccccc2c1 [N′-(2-chloro-6-methylbenzoyl)-4-methyl-3-[2-(3-quinolyl)ethynyl]-benzohydrazide]
- IC50 (Abl (T315I)): 8 nM
- CSF AUC0-24 ([1]; 48 mg, Day 7): 0.0183 µM·h
- CSF AUC0-24 AM ([1]; 48 mg): 10.0 ng·h/mL
- CSF AUC0-24 GM ([1]; 48 mg): 8.9 ng·h/mL
- CSF AUC0-24 Median ([1]; 48 mg): 10.1 ng·h/mL
- CSF Cmax AM ([1]; 48 mg): 0.8 ng/mL
- CSF Cmax GM ([1]; 48 mg): 0.7 ng/mL
- CSF Cmax Median ([1]; 48 mg): 0.8 ng/mL
- CSF AUC0-24 [1, 2]: 10.0 ng·h/mL
- Cavg, CSF [1, 2]: (0.9 nM)
- Cmax, CSF [1, 2]: (1.8 nM)
- Cmax, CSF ([1]; 48 mg, Day 7, Healthy Volunteers, Table 11A): 0.8 ng/mL
- Cmax, CSF/IC50 [1, 2]: 2.0
- Cavg, CSF ([1]; 48 mg, Day 7, Healthy Volunteers, estimated as AUC(0-24)/24): 0.42 ng/mL
- CSF concentrations at 2-3 h ([1]; 48 mg, healthy subjects): 0.5 to 0.7 ng/mL
- CSF AUC0-24 ([1]; 192 mg, Day 7): 0.1304 µM·h
- CSF AUC0-24 AM ([1]; 192 mg): 74.5 ng·h/mL
- CSF AUC0-24 GM ([1]; 192 mg): 59.2 ng·h/mL
- CSF AUC0-24 Median ([1]; 192 mg): 64.5 ng·h/mL
- CSF Cmax AM ([1]; 192 mg): 5.2 ng/mL
- CSF Cmax GM ([1]; 192 mg): 4.6 ng/mL
- CSF Cmax Median ([1]; 192 mg): 5.2 ng/mL
- CSF AUC0-24 [1, 3]: 74.5 ng·h/mL
- Cavg, CSF [1, 3]: (6.8 nM)
- Cmax, CSF [1, 3]: (11.5 nM)
- Cmax, CSF ([1]; 192 mg, Day 7, Healthy Volunteers, Table 11A): 5.2 ng/mL
- Cmax, CSF/IC50 [1, 3]: 13
- Cavg, CSF ([1]; 192 mg, Day 7, Healthy Volunteers, estimated as AUC(0-24)/24): 3.3 ng/mL
- CSF AUC0-24 ([1]; 384 mg, Day 7): 0.1201 µM·h
- CSF AUC0-24 AM ([1]; 384 mg): 58.7 ng·h/mL
- CSF AUC0-24 GM ([1]; 384 mg): 54.5 ng·h/mL
- CSF AUC0-24 Median ([1]; 384 mg): 60.0 ng·h/mL
- CSF Cmax AM ([1]; 384 mg): 5.5 ng/mL
- CSF Cmax GM ([1]; 384 mg): 5.4 ng/mL
- CSF Cmax Median ([1]; 384 mg): 5.1 ng/mL
- CSF AUC0-24 [1, 4]: 58.7 ng·h/mL
- Cavg, CSF [1, 4]: (5.3 nM)
- Cmax, CSF [1, 4]: (12.3 nM)
- Cmax, CSF ([1]; 384 mg, Day 7, Healthy Volunteers, Table 11A): 5.5 ng/mL
- Cmax, CSF/IC50 [1, 4]: 14
- Cavg, CSF ([1]; 384 mg, Day 7, Healthy Volunteers, estimated as AUC(0-24)/24): 2.4 ng/mL
- quantifiable CSF concentrations ([1]; Day 7, 3 dose cohorts): observed in all subjects
- Tmax ([1]; 48 mg, read-out: CSF Tmax Median): 3 h
- Tmax ([1]; 48 mg, read-out: CSF Tmax Min, Max): 3 to 6.02 h
- Tmax ([1]; 192 mg, read-out: CSF Tmax Median): 6 h
- Tmax ([1]; 192 mg, read-out: CSF Tmax Min, Max): 2.03 to 6.01 h
- Tmax ([1]; 384 mg, read-out: CSF Tmax Median): 5 h
- Tmax ([1]; 384 mg, read-out: CSF Tmax Min, Max): 2.5 to 8.01 h
- ratio of concentration in CSF to IC50 of c-Abl inhibition ([1]; therapeutically effective amount): not less than 1
- IC50 (Arg): 0.8 nM
- Kd (c-Abl): 0.98 nM
